Experimental data from patent US4063022A, “Antisecretory 2-imidazolidinones” (Morton-Norwich Products, Inc., priority 1976, dated 1977).

System: gastric acid secretion
Test: modified standard pylorus-ligated secretory testing procedure in the rat
Assay type: in vivo, Sprague-Dawley rats
Details: 300 mg/kg p.o. 1 hr prior to pylorus ligation, 4 hrs after ligation; for % of Control Vol. of Gastric Secretion: control 0.5% Methocel; for % of Control Gastric Acid Output: titration to pH 7, control 0.5% Methocel
Protocol: Such effect is evidenced using a modified standard pyloruslighted secretory testing procedure in the rat. Sprague-Dawley rats, weighing […] and previously fasted for 24 hrs, were used. All compounds were given perorally as suspensions in 0.5% Methocel 1 hr prior to pylorus ligation. Under light ether anesthesia, the rat stomach was ligated at the pylorus region. Four hrs after ligation the conscious rat was sacrificed by a chloroform overdose. The stomach was carefully excised and its content drained into a centrifuge tube. Samples were centrifuged to separate secretions from debris. Gastric fluid volume reading and determination of sample contamination, based on debris and sample color, was made. Titration was performed on a sample aliquot of 1 ml diluted to a volume of 5 ml using distilled water. The titrant used was 0.1N NaOH. Total gastric acid output in the stomach was determined by titration to ph 7. A dose of 300 mg/kg p.o. of a compound was administered to a group of rats and its effect on the volume of gastric secretion and acid output compared to a control group receiving 0.5% Methocel p.o. The activity of each compound based on the degree of inhibition of gastric acid output is set forth in Table I.

Structure (SMILES): O=C1NCCN1Cc1ccc(Cl)c(C(F)(F)F)c1 [Example 11-C, 1-(4-Chloro-3-trifluoromethylbenzyl)-2-imidazolidinone]
- % of Control Vol. of Gastric Secretion: 23.0 % of Control
- % of Control Gastric Acid Output: 16.8 % of Control

Structure (SMILES): CN1CCN(Cc2ccc(Cl)c(Cl)c2)C1=O [I-B, 1-(3,4-Dichlorobenzyl)-3-methyl-2-imidazolidinone]
- % of Control Vol. of Gastric Secretion: 39.2 % of Control
- % of Control Gastric Acid Output: 8.9 % of Control
